Reference: ChEMBL document CHEMBL1123524, “Aminoglycoside antibiotics. 6. Chemical reactions of aminoglycosides with disodium carbenicillin” (1986)
Values after ≈ are worked out from the molar mass of the structure shown.

Columns and labels:
Pseudomonas aeruginosa [1] = assay: Antibacterial activity expressed as MIC value was determined on Pseudomonas aeruginosa A-20717 organism; format: functional
Providencia stuartii [2] = assay: Antibacterial activity expressed as MIC value was determined on Proteus stuartii A-20894 organism; format: functional
Escherichia coli [3] = assay: Antibacterial activity expressed as MIC value was determined on Escherichia coli A-20697 organism; format: functional
Enterobacter cloacae [4] = assay: Antibacterial activity expressed as MIC value was determined on Enterobacter cloacae A-9656 organism; format: functional
Providencia rettgeri [5] = assay: (§1) Antibacterial activity expressed as MIC value was determined on Proteus rettgeri A-9637 organism; format: functional
Pseudomonas aeruginosa [6] = assay: Antibacterial activity expressed as MIC value was determined on Pseudomonas aeruginosa A-20601 organism; format: functional
Pseudomonas aeruginosa [7] = assay: Antibacterial activity expressed as MIC value was determined on Pseudomonas aeruginosa A-20741 organism; format: functional
Pseudomonas aeruginosa [8] = assay: Antibacterial activity expressed as MIC value was determined on Pseudomonas aeruginosa A-22233 organism; format: functional
Escherichia coli [9] = assay: Antibacterial activity expressed as MIC value was determined on Escherichia coli A-22045 organism; format: functional
Escherichia coli [10] = assay: Antibacterial activity expressed as MIC value was determined on Escherichia coli A-21218 organism; format: functional
Escherichia coli [11] = assay: Antibacterial activity expressed as MIC value was determined on Escherichia coli A-9632 organism; format: functional
Providencia rettgeri [12] = assay: Antibacterial activity expressed as MIC value was determined on Proteus rettgeri A-21207 organism; format: functional
Pseudomonas aeruginosa [13] = assay: Antibacterial activity expressed as MIC value was determined on Pseudomonas aeruginosa A-21508 organism; format: functional
Escherichia coli [14] = assay: Antibacterial activity expressed as MIC value was determined on Escherichia coli A-20732 organism; format: functional
Klebsiella pneumoniae = assay: Antibacterial activity expressed as MIC value was determined on Klebsiella pneumonia A-20468 organism; format: functional
Pseudomonas aeruginosa [15] = assay: Antibacterial activity expressed as MIC value was determined on Pseudomonas aeruginosa A-20897 organism; format: functional
Staphylococcus aureus [16] = assay: Antibacterial activity expressed as MIC value was determined on Staphylococcus aureus A-22231 organism; format: functional
Escherichia coli [17] = assay: Antibacterial activity expressed as MIC value was determined on Escherichia coli A-20683 organism; format: functional
Staphylococcus aureus [18] = assay: Antibacterial activity expressed as MIC value was determined on Staphylococcus aureus A-9537 organism; format: functional
Escherichia coli [19] = assay: Antibacterial activity expressed as MIC value was determined on Escherichia coli A-20895 organism; format: functional
Staphylococcus aureus [20] = assay: Antibacterial activity expressed as MIC value was determined on Staphylococcus aureusA-22058 organism; format: functional, organism-based
Pseudomonas aeruginosa [21] = assay: Antibacterial activity expressed as MIC value was determined on Pseudomonas aeruginosa A-21294 organism; format: functional
Staphylococcus aureus [22] = assay: Antibacterial activity expressed as MIC value was determined on Staphylococcus aureus A-22210 organism; format: functional
Staphylococcus aureus [23] = assay: Antibacterial activity expressed as MIC value was determined on Staphylococcus aureus A-21978 organism; format: functional
Pseudomonas aeruginosa [24] = assay: Antibacterial activity expressed as MIC value was determined on Pseudomonas aeruginosa A-9834A organism; format: functional
Proteus mirabilis = assay: Antibacterial activity expressed as MIC value was determined on Proteus mirabilis A-9900 organism; format: functional
Enterobacter cloacae [25] = assay: Antibacterial activity expressed as MIC value was determined on Enterobacter cloacae A-20364 organism; format: functional
Enterobacter cloacae [26] = assay: Antibacterial activity expressed as MIC value was determined on Enterobacter cloacae A-21136 organism; format: functional
Pseudomonas aeruginosa [27] = assay: Antibacterial activity expressed as MIC value was determined on Pseudomonas aeruginosa A-20653 organism; format: functional
Providencia stuartii [28] = assay: Antibacterial activity expressed as MIC value was determined on Proteus stuartii A-21210 organism; format: functional
Pseudomonas aeruginosa [29] = assay: Antibacterial activity expressed as MIC value was determined on Pseudomonas aeruginosa A-21509 organism; format: functional
Escherichia coli [30] = assay: (§2) Antibacterial activity expressed as MIC value was determined on Escherichia coli A-22356 organism; format: functional
Enterobacter cloacae [31] = assay: Antibacterial activity expressed as MIC value was determined on Enterobacter cloacae A-21006 organism; format: functional
Staphylococcus aureus [32] = assay: Antibacterial activity expressed as MIC value was determined on Staphylococcus aureus A-20240 organism; format: functional
Serratia marcescens = assay: Antibacterial activity expressed as MIC value was determined on Serratia marcescens A-20019 organism; format: functional
Escherichia coli [33] = assay: Antibacterial activity expressed as MIC value was determined on Escherichia coli A-20665 organism; format: functional
Providencia rettgeri [34] = assay: ntibacterial activity expressed as MIC value was determined on Proteus rettgeri A-21207 organism; format: functional
Staphylococcus aureus [35] = assay: Antibacterial activity expressed as MIC value was determined on Staphylococcus aureus A-22058 organism; format: functional
Escherichia coli [36] = assay: Antibacterial activity expressed as MIC value was determined on Escherichia coli A-20895; format: functional
Escherichia coli [37] = assay: as §2; format: functional; remark: listed apart in the source
Providencia rettgeri [38] = assay: as §1; format: functional; remark: listed apart in the source
Staphylococcus aureus [39] = assay: Antibacterial activity expressed as MIC value was determined on; format: functional, organism-based
Pseudomonas aeruginosa [40] = assay: Antibacterial activity expressed as MIC value was determined on Pseudomonas aeruginosa A-20601; format: functional, organism-based
Pseudomonas aeruginosa [41] = assay: Antibacterial activity expressed as MIC value was determined on Pseudomonas aeruginosa A-9834A organismA-; format: functional, organism-based

## 2-{4,6-Diamino-3-[3-amino-6-(1-amino-ethyl)-tetrahydro-pyran-2-yloxy]-2-hydroxy-cyclohexyloxy}-5-methyl-4-methylamino-tetrahydro-pyran-3,5-diol; compound with 6-(2-carboxy-2-phenyl-acetylamino)-3,3-dimethyl-7-oxo-4-thia-1-aza-bicyclo[3.2.0]heptane-2-carbo
Pseudomonas aeruginosa [1]
  MIC: > 250 µg/mL
Providencia stuartii [2]
  MIC: > 250 µg/mL
Escherichia coli [3]
  MIC: 250 µg/mL
Enterobacter cloacae [4]
  MIC: > 250 µg/mL
Providencia rettgeri [5]
  MIC: 32 µg/mL
Pseudomonas aeruginosa [6]
  MIC: > 250 µg/mL
Pseudomonas aeruginosa [7]
  MIC: > 250 µg/mL
Pseudomonas aeruginosa [8]
  MIC: > 250 µg/mL
Escherichia coli [9]
  MIC: > 250 µg/mL
Escherichia coli [10]
  MIC: 250 µg/mL
Escherichia coli [11]
  MIC: 250 µg/mL
Providencia rettgeri [12]
  MIC: > 250 µg/mL
Pseudomonas aeruginosa [13]
  MIC: > 250 µg/mL
Escherichia coli [14]
  MIC: > 250 µg/mL
Klebsiella pneumoniae
  MIC: 125 µg/mL
Pseudomonas aeruginosa [15]
  MIC: > 250 µg/mL
Staphylococcus aureus [16]
  MIC: 16 µg/mL
Escherichia coli [17]
  MIC: > 250 µg/mL
Staphylococcus aureus [18]
  MIC: 16 µg/mL
Escherichia coli [19]
  MIC: > 250 µg/mL
Staphylococcus aureus [20]
  MIC: 32 µg/mL
Pseudomonas aeruginosa [21]
  MIC: > 250 µg/mL
Staphylococcus aureus [22]
  MIC: > 250 µg/mL
Staphylococcus aureus [23]
  MIC: > 250 µg/mL
Pseudomonas aeruginosa [24]
  MIC: > 250 µg/mL
Proteus mirabilis
  MIC: 250 µg/mL
Enterobacter cloacae [25]
  MIC: 250 µg/mL
Enterobacter cloacae [26]
  MIC: > 250 µg/mL
Pseudomonas aeruginosa [27]
  MIC: > 250 µg/mL
Providencia stuartii [28]
  MIC: > 250 µg/mL
Pseudomonas aeruginosa [29]
  MIC: > 250 µg/mL
Escherichia coli [30]
  MIC: 250 µg/mL
Enterobacter cloacae [31]
  MIC: 250 µg/mL
Staphylococcus aureus [32]
  MIC: > 250 µg/mL
Serratia marcescens
  MIC: > 250 µg/mL
Escherichia coli [33]
  MIC: > 250 µg/mL

## CC1(C)S[C@@H]2[C@H](NC(=O)C(C(=O)O)c3ccccc3)C(=O)N2[C@H]1C(=O)O (some centres undefined) [CARBENICILLIN]
Pseudomonas aeruginosa [1]
  MIC: > 125 µg/mL
Providencia stuartii [2]
  MIC: 8 µg/mL (≈ 21.1 µM)
Escherichia coli [3]
  MIC: 32 µg/mL (≈ 84.6 µM)
Enterobacter cloacae [4]
  MIC: 32 µg/mL (≈ 84.6 µM)
Pseudomonas aeruginosa [6]
  MIC: 125 µg/mL (≈ 330 µM)
Pseudomonas aeruginosa [7]
  MIC: 125 µg/mL (≈ 330 µM)
Pseudomonas aeruginosa [8]
  MIC: > 125 µg/mL
Escherichia coli [9]
  MIC: 32 µg/mL (≈ 84.6 µM)
Escherichia coli [10]
  MIC: 32 µg/mL (≈ 84.6 µM)
Escherichia coli [11]
  MIC: 8 µg/mL (≈ 21.1 µM)
Pseudomonas aeruginosa [13]
  MIC: > 125 µg/mL
Escherichia coli [14]
  MIC: > 125 µg/mL
Klebsiella pneumoniae
  MIC: > 125 µg/mL
Providencia rettgeri [34]
  MIC: 16 µg/mL (≈ 42.3 µM)
Pseudomonas aeruginosa [15]
  MIC: > 125 µg/mL
Staphylococcus aureus [16]
  MIC: 2 µg/mL (≈ 5.29 µM)
Escherichia coli [17]
  MIC: > 125 µg/mL
Staphylococcus aureus [18]
  MIC: 1 µg/mL (≈ 2.64 µM)
Staphylococcus aureus [35]
  MIC: 4 µg/mL (≈ 10.6 µM)
Pseudomonas aeruginosa [21]
  MIC: > 125 µg/mL
Staphylococcus aureus [22]
  MIC: > 125 µg/mL
Staphylococcus aureus [23]
  MIC: > 125 µg/mL
Escherichia coli [36]
  MIC: 63 µg/mL (≈ 166 µM)
Escherichia coli [37]
  MIC: 4 µg/mL (≈ 10.6 µM)
Pseudomonas aeruginosa [24]
  MIC: 32 µg/mL (≈ 84.6 µM)
Proteus mirabilis
  MIC: 0.5 µg/mL (≈ 1.32 µM)
Enterobacter cloacae [25]
  MIC: > 125 µg/mL
Enterobacter cloacae [26]
  MIC: > 125 µg/mL
Pseudomonas aeruginosa [27]
  MIC: 125 µg/mL (≈ 330 µM)
Providencia stuartii [28]
  MIC: 1 µg/mL (≈ 2.64 µM)
Pseudomonas aeruginosa [29]
  MIC: > 125 µg/mL
Providencia rettgeri [38]
  MIC: 0.5 µg/mL (≈ 1.32 µM)
Enterobacter cloacae [31]
  MIC: > 125 µg/mL
Staphylococcus aureus [32]
  MIC: 8 µg/mL (≈ 21.1 µM)
Serratia marcescens
  MIC: 16 µg/mL (≈ 42.3 µM)
Escherichia coli [33]
  MIC: 8 µg/mL (≈ 21.1 µM)

## GENTAMICIN
Pseudomonas aeruginosa [1]
  MIC: 4 µg/mL
Providencia stuartii [2]
  MIC: 125 µg/mL
Escherichia coli [3]
  MIC: 0.25 µg/mL
Providencia rettgeri [5]
  MIC: 0.06 µg/mL
Staphylococcus aureus [39]
  MIC: 0.13 µg/mL
Pseudomonas aeruginosa [40]
  MIC: > 125 µg/mL
Pseudomonas aeruginosa [7]
  MIC: > 125 µg/mL
Escherichia coli [9]
  MIC: 63 µg/mL
Escherichia coli [10]
  MIC: 0.25 µg/mL
Escherichia coli [11]
  MIC: 0.25 µg/mL
Providencia rettgeri [12]
  MIC: 8 µg/mL
Escherichia coli [14]
  MIC: 16 µg/mL
Klebsiella pneumoniae
  MIC: 0.25 µg/mL
Pseudomonas aeruginosa [15]
  MIC: > 125 µg/mL
Staphylococcus aureus [16]
  MIC: 0.13 µg/mL
Escherichia coli [17]
  MIC: 32 µg/mL
Staphylococcus aureus [18]
  MIC: 0.06 µg/mL
Escherichia coli [19]
  MIC: 32 µg/mL
Pseudomonas aeruginosa [21]
  MIC: 1 µg/mL
Pseudomonas aeruginosa [41]
  MIC: 0.25 µg/mL
Staphylococcus aureus [22]
  MIC: 32 µg/mL
Staphylococcus aureus [23]
  MIC: 0.25 µg/mL
Proteus mirabilis
  MIC: 1 µg/mL
Providencia stuartii [28]
  MIC: 1 µg/mL
Pseudomonas aeruginosa [29]
  MIC: 16 µg/mL
Staphylococcus aureus [32]
  MIC: 0.13 µg/mL
Serratia marcescens
  MIC: 1 µg/mL
